The target of assay [1] is T1, human TRPV1 receptor (hTRPV1) (Homo sapiens (Human), UniProt Q8NER1). Kind of assay: Capsaicin activation assay (FLIPR intracellular Ca2+). The format is cell-based. The conditions noted are these: inhibition of capsaicin-induced intracellular Ca2+ increase; compounds added 3 minutes prior to capsaicin; read-out: hTRPV1 cap. IC50. The method, then:
Dulbecco's modified Eagle medium (D-MEM) (with 4.5 mg/mL glucose) and fetal bovine serum were obtained from Hyclone Laboratories, Inc. (Logan, Utah). Dulbecco's phosphate-buffered saline (D-PBS) (with 1 mg/mL glucose and 3.6 mg/l Na pyruvate, without phenol red), L-glutamine, hygromycin B, and Lipofectamine® were obtained from Life Technologies (Grand Island, N.Y.). G418 sulfate was obtained from Calbiochem-Novabiochem Corp. (San Diego, Calif.). Capsaicin (8-methyl-N-vanillyl-6-nonenamide) was obtained from Sigma-Aldrich, Co. (St. Louis, Mo.). Fluo-4 AM (N-[4-[6-[(acetyloxy)methoxy]-2,7-difluoro-3-oxo-3H-xanthen-9-yl]-2-[2-[2-[bis[2-[(acetyloxy)methoxy]-2-oxyethyl]amino]-5-methylphenoxy]ethoxy]phenyl]-N-[2-[(acetyloxy)methoxy]-2-oxyethyl]-glycine, (acetyloxy)methyl ester) was purchased from Molecular Probes (Eugene, Oreg.).
(§1) The cDNAs for the human TRPV1 receptor (hTRPV1) were isolated by reverse transcriptase-polymerase chain reaction (RT-PCR) from human small intestine poly A+ RNA supplied by Clontech (Palo Alto, Calif.) using primers designed surrounding the initiation and termination codons identical to the published sequences (Hayes et al. Pain 2000, 88, 205-215). The resulting cDNA PCR products were subcloned into pCIneo mammalian expression vector (Promega) and fully sequenced using fluorescent dye-terminator reagents (Prism, Perkin-Elmer Applied Biosystems Division) and a Perkin-Elmer Applied Biosystems Model 373 DNA sequencer or Model 310 genetic analyzer. Expression plasmids encoding the hTRPV1 cDNA were transfected individually into 1321N1 human astrocytoma cells using Lipofectamine®. Forty-eight hours after transfection, the neomycin-resistant cells were selected with growth medium containing 800 μg/mL Geneticin (Gibco BRL). Surviving individual colonies were isolated and screened for TRPV1 receptor activity. Cells expressing recombinant homomeric TRPV1 receptors were maintained at 37° C. in D-MEM containing 4 mM L-glutamine, 300 μg/mL G418 (Cal-biochem) and 10% fetal bovine serum under a humidified 5% CO2 atmosphere.
The functional activity of compounds at the TRPV1 receptor was determined by measurement of intracellular Ca^2+ levels ([Ca^2]i) using the Fluorescence Imaging Plate Reader (FLIPR)^TETRA®. All compounds were tested over a 12-point one-third-log concentration range. Compound stocks, 10 mM, were prepared in DMSO, and diluted serially across a 384-well plate using a Bravo BenchCel workstation (Agilent Technologies, Santa Clara, Calif.). A stock concentration of capsaicin (10 mM) was made in DMSO, and diluted in D-PBS to a final concentration of 200 nM (4×). On the day prior to the experiment, recombinant HEK293 cells that stably express either human or rat TRPV1 (hTRPV1-3) were removed from tissue culture flasks and plated in growth medium into black-walled clear-bottom 384-well Biocoat™ poly-D-lysine assay plates (BD Biosciences, Bedford, Mass.) using a Multidrop® dispenser (ThermoScientific, Waltham, Mass.). On the day of the experiment, growth medium was removed, and the no-wash FLIPR® Calcium-4 dye (λEX=470-495 nm, λEM=515-575 nm; Molecular Devices, Sunnyvale, Calif.) was added to each well using the Multidrop® dispenser. Cells were incubated for 90-120 minutes in the dark at room temperature. Test compounds were added to the cells 3 minutes prior to the addition of 200 nM capsaicin (4×), and the final assay volume was 80 μL. Fluorescence readings were made at 1 to 5 second intervals over the course of the experimental run. The peak increase in relative fluorescence units (minus baseline) was calculated, and expressed as a percentage of the 50 nM capsaicin (control) response. Curve-fits of the data were solved using a four-parameter logistic Hill equation in GraphPad Prism® (GraphPad Software, Inc., San Diego, Calif.), and IC50 values (concentration of the test compounds that inhibits 50% of the intracellular Ca^2+ concentration increase induced by capasin) were calculated.

The target in assay [2] is T1, human TRPV1 receptor (hTRPV1). Kind of assay: Acid activation assay (pH 5.0, FLIPR intracellular Ca2+). The settings on record: 37.5 μM compound, percentage of the maximal pH 5.0-induced response remaining; for remaining activity at 37.5 µM: read-out: hTRPV1 H+ (max % remain). The class given is cell-based. Here is the method: Dulbecco's modified Eagle's medium (DMEM) with 4.5 mg/mL D-glucose, fetal bovine serum, L-glutamine, and 2-morpholinoethanesulfonic acid (MES) were purchased from Sigma-Aldrich Co. (St. Louis, Mo.). Dulbecco's phosphate-buffered saline (DPBS) with Ca^2+, Mg^2+, and 1 mg/mL D-glucose (pH 7.4), Geneticin®, 0.25% trypsin-1 mM EDTA, and penicillin-streptomycin were purchased from Invitrogen Corp. (Carlsbad, Calif.). The FLIPR® Calcium 4 assay kit was purchased from Molecular Devices (Sunnyvale, Calif.).
as §1, with “DMEM” for “D-MEM”
The functional activity of compounds at the TRPV1 receptor was determined by measurement of intracellular Ca^2+ levels ([Ca^2+]i) using the Fluorescence Imaging Plate Reader (FLIPR)^TETRA®. All compounds were tested over a 12-point one-half-log concentration range. Compound stocks, 10 mM, were prepared in DMSO, and diluted serially across a 384-well plate using a Bravo BenchCel workstation (Agilent Technologies, Santa Clara, Calif.).
On the day of the experiment growth medium was removed, and the no-wash FLIPR®Calcium-4 dye (λEX=470-495 nm, λEM=515-575 nm) was added to each well using the Multidrop® dispenser. Cells were incubated for 90-120 minutes in the dark at 25° C. Test compounds were dissolved in DMSO, and plates were prepared using an Agilent Bravo workstation (Agilent Technologies Inc., Santa Clara, Calif.). Compounds were added to the cells 3 minutes prior to the addition of a pH 5.0 solution. Reagents were delivered at a rate of 40 μL/sec, and the final assay volume was 80 μL. Acidic pH solutions were prepared by titration of DPBS/MES with 1 N HCl. The intensity of the fluorescence was captured and digitally transferred to an interfaced PC.

Structures are written as SMILES.

T1 sequence (Q8NER1 whole entry): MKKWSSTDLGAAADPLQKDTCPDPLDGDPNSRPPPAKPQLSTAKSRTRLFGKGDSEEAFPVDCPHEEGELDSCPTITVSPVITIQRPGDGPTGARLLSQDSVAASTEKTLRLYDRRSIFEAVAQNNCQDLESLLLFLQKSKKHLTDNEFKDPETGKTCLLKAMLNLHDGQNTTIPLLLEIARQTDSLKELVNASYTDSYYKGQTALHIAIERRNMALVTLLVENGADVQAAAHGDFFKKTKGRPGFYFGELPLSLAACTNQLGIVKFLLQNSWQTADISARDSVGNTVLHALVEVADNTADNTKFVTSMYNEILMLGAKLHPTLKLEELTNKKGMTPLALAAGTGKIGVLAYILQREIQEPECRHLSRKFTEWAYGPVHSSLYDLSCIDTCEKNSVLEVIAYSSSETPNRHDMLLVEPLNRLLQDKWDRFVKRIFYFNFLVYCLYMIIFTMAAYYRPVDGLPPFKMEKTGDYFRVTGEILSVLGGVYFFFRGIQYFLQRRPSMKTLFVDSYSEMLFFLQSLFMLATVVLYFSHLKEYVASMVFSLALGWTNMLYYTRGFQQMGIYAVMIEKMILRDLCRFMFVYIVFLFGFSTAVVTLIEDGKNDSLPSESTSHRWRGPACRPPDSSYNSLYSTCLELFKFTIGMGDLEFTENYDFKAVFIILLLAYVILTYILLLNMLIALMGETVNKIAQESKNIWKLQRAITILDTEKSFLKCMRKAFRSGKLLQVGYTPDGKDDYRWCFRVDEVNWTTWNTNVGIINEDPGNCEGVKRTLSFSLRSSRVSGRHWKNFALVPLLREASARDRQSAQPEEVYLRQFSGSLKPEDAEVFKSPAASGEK

In the case of `CCC1(CC)C[C@@H](NC(=O)NCc2ccc(NS(C)(=O)=O)c(F)c2)c2cc(F)ccc2O1` [Example 18, N-{4-[({[(4R)-2,2-diethyl-6-fluoro-3,4-dihydro-2H-chromen-4-yl]carbamoyl}amino)methyl]-2-fluorophenyl}methanesulfonamide], in assay [1], the IC50 was 2.15 µM. Further, the remaining activity at 37.5 µM in assay [2] was found to be 56%.

Turning to `CCC1(CC)C[C@@H](NC(=O)NCc2ccc(NS(C)(=O)=O)c(F)c2)c2ccc(OC(F)(F)F)cc2O1` [Example 19, N-{4-[({[(4R)-2,2-diethyl-7-(trifluoromethoxy)-3,4-dihydro-2H-chromen-4-yl]carbamoyl}amino)methyl]-2-fluorophenyl}methanesulfonamide], the IC50 in assay [1] came to 0.466 µM. Besides, the remaining activity at 37.5 µM in assay [2] came to 82%.

Regarding `CS(=O)(=O)Nc1ccc(CNC(=O)N[C@@H]2CC(CF)(CF)Oc3c2ccc(Cl)c3F)cc1F` [Example 20, N-{4-[({[(4R)-7-chloro-8-fluoro-2,2-bis(fluoromethyl)-3,4-dihydro-2H-chromen-4-yl]carbamoyl}amino)methyl]-2-fluorophenyl}methanesulfonamide], the IC50 in assay [1] is 0.791 µM. In addition, in assay [2], the remaining activity at 37.5 µM amounted to 60%.

On to `CC1(C)C[C@@H](NC(=O)NCc2ccc(NS(C)(=O)=O)c(F)c2)c2ccccc2O1` [Example 21, N-{4-[({[(4R)-2,2-dimethyl-3,4-dihydro-2H-chromen-4-yl]carbamoyl}amino)methyl]-2-fluorophenyl}methanesulfonamide], for which the IC50 in assay [1] amounted to 7.56 µM. For the same compound, the remaining activity at 37.5 µM in assay [2] stood at 74%.

`CC1(C)C[C@@H](NC(=O)NCc2ccc(NS(C)(=O)=O)c(F)c2)c2cc(F)ccc2O1` [Example 22, N-{2-fluoro-4-[({[(4R)-6-fluoro-2,2-dimethyl-3,4-dihydro-2H-chromen-4-yl]carbamoyl}amino)methyl]phenyl}methanesulfonamide]: the IC50 in assay [1] is 7.59 µM. Further, the remaining activity at 37.5 µM in assay [2] worked out at 71%.

Regarding `CC1(C)C[C@@H](NC(=O)NCc2ccc(NS(C)(=O)=O)c(F)c2)c2ccc(F)c(Cl)c2O1` [Example 23, N-{4-[({[(4R)-8-chloro-7-fluoro-2,2-dimethyl-3,4-dihydro-2H-chromen-4-yl]carbamoyl}amino)methyl]-2-fluorophenyl}methanesulfonamide], in assay [1], the IC50 worked out at 0.358 µM. Also, the remaining activity at 37.5 µM in assay [2] came to 24%.

`CS(=O)(=O)Nc1ccc(CNC(=O)N[C@H]2CCOc3cc(OC(F)(F)F)ccc32)cc1F` [Example 24, N-{2-fluoro-4-[({[(45)-7-(trifluoromethoxy)-3,4-dihydro-2H-chromen-4-yl]carbamoyl}amino)methyl]phenyl}methanesulfonamide]: the IC50 in assay [1] was above 37.5 µM. Further, the “hTRPV1 H+ (max % remain)” value in assay [2] was determined as 77%.

Turning to `CC1(C)C[C@@H](NC(=O)NCc2ccc(NS(C)(=O)=O)c(F)c2)c2ccc(Cl)cc2O1` [Example 25, N-{4-[({[(4R)-7-chloro-2,2-dimethyl-3,4-dihydro-2H-chromen-4-yl]carbamoyl}amino)methyl]-2-fluorophenyl}methanesulfonamide], the IC50 in assay [1] was 0.602 µM. Moreover, the remaining activity at 37.5 µM in assay [2] came to 70%.

On to `CS(=O)(=O)Nc1ccc(CNC(=O)N[C@@H]2CCOc3cc(OC(F)(F)F)ccc32)cc1F` [Example 26, N-{2-fluoro-4-[({[(4R)-7-(trifluoromethoxy)-3,4-dihydro-2H-chromen-4-yl]carbamoyl}amino)methyl]phenyl}methanesulfonamide], for which, in assay [1], the IC50 was above 37.5 µM. Also, the remaining activity at 37.5 µM in assay [2] came out at 84%.

Take `CS(=O)(=O)Nc1ccc(CNC(=O)N[C@@H]2CC(CF)(CF)Oc3ccccc32)cc1F` [Example 27, N-{4-[({[(4R)-2,2-bis(fluoromethyl)-3,4-dihydro-2H-chromen-4-yl]carbamoyl}amino)methyl]-2-fluorophenyl}methanesulfonamide]: the IC50 in assay [1] was 22.5 µM. Moreover, the remaining activity at 37.5 µM in assay [2] amounted to 59%.

For the compound `CS(=O)(=O)Nc1ccc(CNC(=O)N[C@@H]2CC(CF)(CF)Oc3c(F)cccc32)cc1F` [Example 28, N-{2-fluoro-4-[({[(4R)-8-fluoro-2,2-bis(fluoromethyl)-3,4-dihydro-2H-chromen-4-yl]carbamoyl}amino)methyl]phenyl}methanesulfonamide], the half-inhibitory concentration (IC50) in assay [1] was found to be 29.5 µM. In addition, the remaining activity at 37.5 µM in assay [2] turned out to be 68%.

Take `CC1(C)C[C@@H](NC(=O)NCc2ccc(NS(C)(=O)=O)c(F)c2)c2ccc(F)c(F)c2O1` [Example 29, N-{4-[({[(4R)-7,8-difluoro-2,2-dimethyl-3,4-dihydro-2H-chromen-4-yl]carbamoyl}amino)methyl]-2-fluorophenyl}methanesulfonamide]: in assay [1], the IC50 came out at 1.15 µM. Besides, in assay [2], the remaining activity at 37.5 µM was 27%.

Regarding `CS(=O)(=O)Nc1ccc(CNC(=O)N[C@@H]2CCOc3ccc(F)cc32)cc1F` [Example 30, N-{2-fluoro-4-[({[(4R)-6-fluoro-3,4-dihydro-2H-chromen-4-yl]carbamoyl}amino)methyl]phenyl}methanesulfonamide], in assay [1], the IC50 is above 37.5 µM. Further, the remaining activity at 37.5 µM in assay [2] amounted to 84%.

For the compound `CS(=O)(=O)Nc1ccc(CNC(=O)N[C@@H]2CCOc3c2cccc3C(F)(F)F)cc1F` [Example 31, N-{2-fluoro-4-[({[(4R)-8-(trifluoromethyl)-3,4-dihydro-2H-chromen-4-yl]carbamoyl}amino)methyl]phenyl}methanesulfonamide], the IC50 in assay [1] amounted to 3.8 µM. The remaining activity at 37.5 µM in assay [2] amounted to 77%.

The values are drawn from US8796328B2, “TRPV1 antagonists” (AbbVie Inc., priority 2012, dated 2014).
